From patent US5747269A, “Determination of peptide motifs on MHC molecules” (Max-Planck-Gesellschaft zur Forderung der Wissenschaften …, priority 1991, dated 1998)
Where no end group is shown, it is not given here.

Key:
[1] = tested on: K^d; conditions: natural influenza epitope; cited from earlier work
[2] = tested on: H-2K^d

In the case of TYQRTRALV [TYQRTRALV (SEQ ID NO:1)], the “K^d restriction / T cell epitope” value [1] is given as “natural K^d -restricted influenza epitope”.

For SYFPEITHI [SYFPEITHI (SEQ ID NO:2)], the “match of the K^d-eluted self peptide sequence with the K^d-restricted consensus motif” value [2] was “matches the consensus motif”.
